Measured values: patent US20100047233A1, “TREATMENT OF POST-MENOPAUSAL AND POST-HYSTERECTOMY MEDIATED COGNITIVE DISORDERS” (priority 2006, published 2010)
Entries after “also recorded” stand apart in the source; their conditions may differ. Non-standard residues stand in square brackets, D forms with d. Residues, ends and D or L forms follow the SMILES beside them. dPhe(4-Cl) = N[C@H](Cc1ccc(Cl)cc1)C(=O)O; d2Nal = N[C@H](Cc1ccc2ccccc2c1)C(=O)O; dCit = NC(=O)NCCC[C@@H](N)C(=O)O; d3Pal = N[C@H](Cc1cccnc1)C(=O)O

Tests used:
C57/B6 female mice [1] = experiment: Morris Water Maze in ovariectomized mice (cetrorelix); format: in vivo
From the text: FIG. 13 are graphs illustrating Latency to enter NE quadrant and % Time spent in NE quadrant during the probe trial for animals treated with cetrorelix or saline and sham operated animals (SHAM).
FIG. 14 are plots illustrating the distance swam in NE quadrant during the trial for animals treated with cetrorelix or saline and sham operated animals.
We present preliminary data gathered from a pilot study and that focuses on the effects of cetrorelix on cognition in ovariectomized animals with or without estrogen replacement immediately after surgery. For this pilot 2 month old C57/B6 female mice were ovariectomized, as described above, and then treated with either 0.9% saline and the other half with cetrorelix. In addition we added a SHAM ovariectomized group that received saline and a placebo pallet (n=10). During the last two weeks of the study all animals have been tested for Morris Water Maze performance.
(§1) Additionally, to further determine the memory function and training success in the animals we measured the capacity of the animals to retain the information learned using a probe trial. In this regard, at the end of the last day of training we removed the platform and let the animals swim for 1 minute.

C57/B6 female mice [2] = experiment: Y-maze performance in ovariectomized mice; format: in vivo; conditions: OVX mice; for Y-maze performance: leuprolide acetate 7.5 mg/kg for 3 months vs saline, improvement specific to placebo replaced group
Procedure: To measure spontaneous alternation behavior and exploratory activity, a hippocampal-associated task, we used a Y-maze [32 cm (long)×10 cm (wide) with 26-cm walls]. Tg-LHβ and LHRKO animals were tested as previously described (Joseph et al., 2003). Briefly, each animal (randomized and investigator-blinded) was placed in one of three arms of the Y-maze (alternating arms across animals in each group) and each arm entry was recorded for duration of 5 minutes. An alternation was defined as 3 entries in 3 different arms (i.e., 1, 2, 3 or 2, 3, 1 etc). % number of alternations was calculated as (total alternations/total number of entries−2)×100. The maze was cleaned with ethanol between each animal to minimize odor cues. […] In addition we added a SHAM ovariectomized group that received saline and a placebo pallet (n=10). During the last two weeks of the study all animals have been tested for Y-maze and Morris Water Maze performance.

Aβ [3] = experiment: Aβ burden (% area stained) in hippocampus of Tg2576 mice; format: in vivo; conditions: vs saline-treated animals
From the text: Scale bar, 200 μm. […] In this initial study we used aged animals to 1) circumvent the estrogen issue, since aged mice, like humans show estropause and 2) to examine the effects of LH ablation once the disease is well established.

serum LH = experiment: Serum LH after leuprolide acetate treatment in mice; format: in vivo; conditions: for serum LH: Tg2576 mice, vs saline
From the text: (§2) Inset: LHβ mRNA expression in mouse pituitary gland.

C57/B6 female mice [4] = experiment: Morris Water Maze in ovariectomized mice (leuprolide acetate, estrogen); format: in vivo; conditions: for OVX-associated cognitive decline, length of time taken to locate the invisible platform across days: OVX C57/B6 mice, Morris Water Maze, 3 months treatment
From the text: (Significance indicated by: *P+S vs E+S; #=P+S vs P+L; $=P+S vs SHAM; %=P+S vs E+L; at p<0.05).
For this pilot 2 month old C57/B6 female mice from Jackson Labs, were ovariectomized (n=40) them and either replaced them with 90-day time-release estrogen (n=20) or placebo pellets (Innovative research of America, F1) (n=18). […] In addition we added a SHAM ovariectomized group that received saline and a placebo pallet (n=10). During the last two weeks of the study all animals have been tested for Y-maze and Morris Water Maze performance.
As mentioned before, all mice also underwent MWM testing, a measurement of hippocampal function based on the capacity of the animal to find a hidden platform under water by remembering and using spatial cues in the environment.
as §1

Tg2576 mice [5] = experiment: Y-maze performance in aged Tg2576 mice; format: in vivo; conditions: aged (21 month old) Tg2576 female mice, 3 months, vs saline/placebo
Procedure: Figure illustrates the mean % alternations expressed as % change from baseline. To measure spontaneous alternation behavior and exploratory activity, a hippocampal-associated task, we used a Y-maze [32 cm (long)×10 cm (wide) with 26-cm walls]. Tg-LHβ and LHRKO animals were tested as previously described (Joseph et al., 2003). Briefly, each animal (randomized and investigator-blinded) was placed in one of three arms of the Y-maze (alternating arms across animals in each group) and each arm entry was recorded for duration of 5 minutes. An alternation was defined as 3 entries in 3 different arms (i.e., 1, 2, 3 or 2, 3, 1 etc). % number of alternations was calculated as (total alternations/total number of entries−2)×100. The maze was cleaned with ethanol between each animal to minimize odor cues. […] In this initial study we used aged animals to 1) circumvent the estrogen issue, since aged mice, like humans show estropause and 2) to examine the effects of LH ablation once the disease is well established.

Tg2576 mice [6] = conditions: APP transgenic mice, earlier study; cited from earlier work
LHβ mRNA = LHβ mRNA expression in mouse pituitary gland; format: in vivo; conditions: saline versus 6 and 8 week leuprolide acetate treatment
From the text: as §2

AD patients = conditions: high doses, phase II clinical trial; cited from earlier work
Aβ [7] = conditions: APP transgenic mice, earlier study; cited from earlier work
[8] = platform removed, 1 minute swim, regardless of replacement regiment

CC(=O)N[C@H](Cc1ccc2ccccc2c1)C(=O)N[C@H](Cc1ccc(Cl)cc1)C(=O)N[C@H](Cc1cccnc1)C(=O)N[C@@H](CO)C(=O)N[C@@H](Cc1ccc(O)cc1)C(=O)N[C@H](CCCNC(N)=O)C(=O)N[C@@H](CC(C)C)C(=O)N[C@@H](CCCNC(=N)N)C(=O)N1CCC[C@H]1C(=O)N[C@H](C)C(N)=O [cetrorelix] (Ac-[d2Nal][dPhe(4-Cl)][d3Pal]SY[dCit]LRP[dA]-NH2)
OVX-dependent cognitive declines, Morris Water Maze (C57/B6 female mice [1]; OVX placebo-implanted mice, cetrorelix vs saline): effective at improving OVX-dependent cognitive declines
rate of learning in Morris Water Maze (C57/B6 female mice [1]; independent of replacement regiment, cetrorelix vs saline): learned at a faster rate
distance swam in NE quadrant, probe trial (C57/B6 female mice [1]; platform removed, 1 minute swim): swam longer distances

CCNC(=O)[C@@H]1CCCN1C(=O)[C@H](CCCNC(=N)N)NC(=O)[C@H](CC(C)C)NC(=O)[C@@H](CC(C)C)NC(=O)[C@H](Cc1ccc(O)cc1)NC(=O)[C@H](CO)NC(=O)[C@H](Cc1c[nH]c2ccccc12)NC(=O)[C@H](Cc1c[nH]cn1)NC(=O)[C@@H]1CCC(=O)N1 [leuprolide acetate]
Y-maze performance (C57/B6 female mice [2]): significantly improved Y-maze performance
Y-maze performance (C57/B6 female mice [2]; listed as leuprolide): effective at improving OVX-dependent cognitive declines
Aβ burden / plaque load (% area stained in the entire hippocampus) (Aβ [3]): significantly lower; also recorded: decreases Aβ plaque load
serum LH (serum LH): significant decline in serum LH
serum LH (serum LH; listed as Leuprolide acetate): significantly reduces serum LH
time course of serum LH (serum LH; up to 8 weeks following treatment): classical LH modulation pattern by GnRH agonists
OVX-associated cognitive decline, length of time taken to locate the invisible platform across days (C57/B6 female mice [4]): as effective as estrogen in rescuing OVX-associated cognition decline
rate of learning in Morris Water Maze (C57/B6 female mice [4]; independent of replacement regiment, vs saline): learned at a faster rate
distance swam in NE quadrant, probe trial (C57/B6 female mice [4]; [8]): swam longer distances
latency to enter NE quadrant, probe trial (C57/B6 female mice [4]; [8]): entered that quadrant earlier
latency to enter platform location, probe trial (C57/B6 female mice [4]; [8]): crossed the invisible platform region more earlier
number of platform crossings, probe trial (C57/B6 female mice [4]; [8]): crossed it more times
Y-maze cognitive performance (% alternations, % change from baseline) (Tg2576 mice [5]): significantly attenuates cognitive decline
Y-maze performance (Tg2576 mice [6]): improves Y-maze performance
LHβ mRNA expression in the pituitary (LHβ mRNA): clear decrease in the expression of LHβ mRNA
cognitive impairment and activities of daily living (AD patients): stabilization in cognitive impairment and activities of daily living
amyloid-β load in the hippocampus (Aβ [7]): decreases amyloid-β load

estrogen
Y-maze performance, estrogen-replaced vs placebo replaced (C57/B6 female mice [2]; saline-treated, 90-day time-release estrogen vs placebo pellets, p=0.07): strong trend
OVX-associated cognitive decline, length of time taken to locate the invisible platform across days (C57/B6 female mice [4]): rescued
